Assay results taken from ChEMBL document CHEMBL1201862, “PubChem BioAssay data set” (2004).
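Method: 48-hour compound exposure of cells in 96-well plates, five concentrations, linear interpolation of endpoints. At the GI50, growth is halved.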 Activity calls are given as the source filed them. Rule as the data show it: active = GI50 up to about 1.1 µM and inactive = higher.

Assays:
Test in all cases: DTP human tumour cell line panel, 48 h
PC-3 = test system: PC-3
HCT-116 = test system: HCT-116
Hs-578T = test system: Hs-578T
EKVX = test system: EKVX
SNB-19 = test system: SNB-19
RPMI-8226 = test system: RPMI-8226
HCT-15 = test system: HCT-15
K562 = test system: K562
HOP-92 = test system: HOP-92
OVCAR-3 = test system: OVCAR-3
RXF 393 = test system: RXF 393
U-251 = test system: U-251
MCF7 = test system: MCF7
KM12 = test system: KM12
A498 = test system: A498
BT-549 = test system: BT-549
786-0 = test system: 786-0
OVCAR-5 = test system: OVCAR-5
SK-MEL-28 = test system: SK-MEL-28
NCI-H522 = test system: NCI-H522

SMILES | GI50 (PC-3) | GI50 (HCT-116) | GI50 (Hs-578T) | GI50 (EKVX) | GI50 (SNB-19) | GI50 (RPMI-8226) | GI50 (HCT-15) | GI50 (K562) | GI50 (HOP-92) | GI50 (OVCAR-3) | GI50 (RXF 393) | GI50 (U-251) | GI50 (MCF7) | GI50 (KM12) | GI50 (A498) | GI50 (BT-549) | GI50 (786-0) | GI50 (OVCAR-5) | GI50 (SK-MEL-28) | GI50 (NCI-H522)
Cc1cc(C)nc(SCC(=O)OC2CC(C)CCC2C(C)C)n1 (stereo not given) | 28.3 µM (inactive) | 19.2 µM (inactive) | 33.4 µM (inactive) | 17.9 µM (inactive) | 18.7 µM (inactive) | 19.3 µM (inactive) | 15.6 µM | 20 µM (inactive) | 26 µM (inactive) | 14.3 µM (inactive) | 16.8 µM (inactive) | 22.5 µM (inactive) | 23.3 µM (inactive) | 20.1 µM (inactive) | 18.1 µM (inactive) | 45.9 µM (inactive) | 21.6 µM (inactive) | 22.3 µM (inactive) | 26 µM (inactive) | 18.8 µM (inactive)
CC(=O)C1=C(C)N(c2ccc(C)cc2)C2(O)C=CC(O)=C3C(=O)c4ccccc4C(=O)C312 (stereo not given) | 16.4 µM (inactive) | 5.52 µM (inactive) | 24.2 µM (inactive) | 19.3 µM (inactive) | 22.6 µM (inactive) | 3.27 µM (inactive) | 4.49 µM | 31.3 µM (inactive) | 55.1 µM (inactive) | 3.91 µM (inactive) | 9.04 µM (inactive) | 18.5 µM (inactive) | 7.71 µM (inactive) | 7.41 µM (inactive) | 12.9 µM (inactive) | 11 µM (inactive) | 9.14 µM (inactive) | 23.7 µM (inactive) | 13.1 µM (inactive) | 13.7 µM (inactive)
C=CC[C@H]1[C@H](O[Si](C)(C)C(C)(C)C)C=CC(=O)[C@@H]1CC(=O)N(Cc1ccccc1)Cc1ccccc1 | 10.4 µM (inactive) | 8.2 µM (inactive) | 6.27 µM (inactive) | 12.9 µM (inactive) | 29.6 µM (inactive) | 9.89 µM (inactive) | 9.73 µM | 4.69 µM (inactive) | 2.09 µM (inactive) | 15.1 µM (inactive) | 6.15 µM (inactive) | 19.3 µM (inactive) | 19.5 µM (inactive) | 15.9 µM (inactive) | 57.5 µM (inactive) | 16.9 µM (inactive) | 17.5 µM (inactive) | 32.4 µM (inactive) | 49.5 µM (inactive) | 5.01 µM (inactive)
